# Where “and” joins values, the source holds several entries; their conditions need not be identical. Identical values can stand only once.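 Values below derive from 48-hour exposures of cells grown in 96-well plates, with endpoints linearly interpolated between the two concentrations bracketing the appropriate inhibition level. Here, GI50 denotes the concentration required for 50% inhibition of growth. TGI is the concentration that stops growth completely.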
# Columns and labels:
# Experiment in all cases: DTP human tumour cell line panel, 48 h
# [1] = system: A549 NSCLC
# [2] = system: COLO 205 colon
# [3] = system: HCT-15 colon
# [4] = system: IGROV1 ovarian
# [5] = system: OVCAR-4 ovarian
# [6] = system: SF-539 CNS
# [7] = system: SK-MEL-2 melanoma
# [8] = system: SK-MEL-5 melanoma
# [9] = system: SNB-75 CNS
# [10] = system: UACC-62 melanoma
Compound,TGI [1],TGI [2],TGI [3],TGI [4],TGI [5],TGI [6],TGI [7],TGI [8],TGI [9],TGI [10],GI50 [1],GI50 [2],GI50 [3],GI50 [4],GI50 [6],GI50 [7],GI50 [8],GI50 [10],GI50 [5],GI50 [9]
COc1ccc2c(c1)Cc1cc(N=[N+]([O-])c3ccc4c(c3)Cc3cc(OC)ccc3-4)ccc1-2,> 100 µM,28.6 µM,> 100 µM,55.2 µM,> 100 µM,28.5 µM,> 100 µM,42.8 µM,> 100 µM,85.4 µM,,,,,,,,,,
COC(=O)C1=C(O)C(C(=O)OC)[C@@]2(O)[C@@H](C(=O)OC)C(c3ccc(OC(=O)C(Cc4ccccc4)NC(C)=O)cc3)C[C@@H]1[C@@H]2C(=O)OC (stereo partly specified),57.5 µM,> 100 µM,28.4 µM,> 100 µM,,73.1 µM,> 100 µM,39.3 µM,,40.9 µM,20.6 µM,27.9 µM,13.3 µM,45.7 µM,33.6 µM,47.4 µM,18 µM,16.1 µM,,
CC(=N\O)/C(C)=N/O.CC(=N\O)/C(C)=N/O.[Pd],> 10 µM,> 10 µM,7.08 µM,9.16 µM,> 10 µM,6.1 µM,8.67 µM,4.04 µM,,5.75 µM,7.03 µM,3.84 µM,2.44 µM,3.09 µM,2.77 µM,3.31 µM,1.81 µM,2.11 µM,4.72 µM,
O=C1/C=C(/c2ccc(O)cc2)[C@H](O)Cc2ccc(OC3OC(CO)C(O)C(O)C3O)cc2O1 (stereo partly specified) (tested in a mixture with another compound),> 100 µM,> 100 µM,> 100 µM,> 100 µM,> 100 µM,> 100 µM,> 100 µM,> 100 µM,,> 100 µM,,,,,,,,,,
COc1cc(C2CC(c3ccc(C)cc3)=NN2C(C)=O)ccc1Oc1ccnc2cc(Cl)ccc12 (stereo unspecified),,> 100 µM,> 100 µM,> 100 µM,,> 100 µM,43.2 µM,> 100 µM,5.93 µM,> 100 µM,,> 100 µM,> 100 µM,38.2 µM,11.7 µM,15.8 µM,> 100 µM,> 100 µM,,0.482 µM
Clc1cc(Cl)c2n[se]nc2c1,> 100 µM,,> 100 µM,> 100 µM,> 100 µM,> 100 µM,> 100 µM,> 100 µM,> 100 µM,> 100 µM,,,,,,,,,,
COc1ccc(-n2cc(-c3ccc(Cl)cc3)[nH]c2=S)cc1Cl,> 100 µM,> 100 µM,> 100 µM,> 100 µM,48.6 µM,44.3 µM,> 100 µM,> 100 µM,46.7 µM,> 100 µM,46.6 µM,> 100 µM,> 100 µM,30.2 µM,19.9 µM,82.1 µM,42.1 µM,83.5 µM,20.7 µM,21.6 µM
N#CC1(Cc2ccccc2Cl)c2ccccc2C=CN1C(=O)c1ccccc1 (stereo unspecified),> 100 µM,> 100 µM,> 100 µM,> 100 µM,,> 100 µM,> 100 µM,> 100 µM,> 100 µM,> 100 µM,,,,,,,,,,
COC1=C(NC(C)=O)C(=O)c2nc3n(c2C1=O)CCC3,> 69.9 µM,38.6 µM,53.4 µM,35.6 µM,30.7 µM,32.9 µM,32.7 µM,31.5 µM,41.2 µM,32.4 µM,,,,,,,,,,
COc1cc(OC)c(Oc2cccc(OC)c2OC)c(OC)c1,> 100 µM,> 100 µM,,> 100 µM,> 100 µM,> 100 µM,> 100 µM,> 100 µM,> 100 µM,> 100 µM,,,,,,,,,,
CCCCCc1c(C)[nH]c(/C=C2\N=C(c3ccc[nH]3)C=C2Oc2ccc(OC)cc2)c1C,0.165 µM,0.502 µM and 0.19 µM,0.759 µM,1.49 µM and 3.07 µM,2.02 µM,0.551 µM and 0.212 µM,0.302 µM and 0.0836 µM,0.217 µM and 0.0466 µM,0.559 µM and 0.316 µM,0.272 µM and 0.0725 µM,0.0339 µM,0.125 µM and 0.028 µM,0.113 µM,0.244 µM and 0.0925 µM,0.156 µM and 0.0431 µM,0.116 µM and 0.0299 µM,0.0844 µM and 0.0187 µM,0.112 µM and 0.0271 µM,0.15 µM and 0.0221 µM,0.204 µM and 0.0328 µM
CC(C)n1c2c(c3ccccc3c1=O)C(=O)c1ccccc1-2,> 100 µM,> 100 µM,> 100 µM,> 100 µM,> 100 µM,> 100 µM,> 100 µM,> 100 µM,> 100 µM,> 100 µM,,,,,,,,,,
O=C(Nc1ccc(Cl)cc1Cl)c1c/c(=N\O)c2ccc(O)cc2o1,> 100 µM,> 100 µM,> 100 µM,> 100 µM,> 100 µM,> 100 µM,,> 100 µM,> 100 µM,> 100 µM,,,,,,,,,,
C=CC[n+]1c(/C=C2\Sc3ccccc3N2C)sc(-c2ccccc2)c1-c1ccccc1,11 µM,0.658 µM,13.4 µM,13.7 µM,11.9 µM,12.5 µM,,0.32 µM,,,0.339 µM,0.249 µM,2.18 µM,0.45 µM,0.411 µM,,0.173 µM,,0.274 µM,0.298 µM
Cc1c(Br)cccc1NC(=O)c1sc2nc3c(cc2c1N)CN(Cc1ccccc1)CC3,19.6 µM,,> 50 µM,> 50 µM,8.89 µM,0.858 µM,15.1 µM,8.18 µM,17.1 µM,> 50 µM,0.491 µM,,0.165 µM,0.47 µM,0.158 µM,0.231 µM,0.201 µM,0.372 µM,0.523 µM,0.28 µM
O=C(CC1Sc2ccccc2NC1=O)Nc1ccc([N+](=O)[O-])cc1[N+](=O)[O-] (stereo unspecified),88.7 µM,> 100 µM,,39.1 µM,52.6 µM,,46.5 µM,33.4 µM,38.7 µM,28.8 µM,,,,,,,,,,
COc1ccc(-c2cc(-c3ccco3)c(C#N)c(=O)n2C2OC(OC(=O)c3ccccc3)C(OC(=O)c3ccccc3)C2OC(=O)c2ccccc2)cc1 (stereo unspecified),,> 100 µM,> 100 µM,> 100 µM,> 100 µM,> 100 µM,> 100 µM,> 100 µM,> 100 µM,,,,,,,,,,,
COc1cc2c(cc1OC)[C@@H]1[C@H](C2=O)c2ccc([N+](=O)[O-])cc2C(=O)N1CCCBr,4.02 µM,,9.27 µM,1.93 µM,> 100 µM,2.29 µM,> 100 µM,0.123 µM,12.5 µM,1.16 µM,,,0.369 µM,< 0.01 µM,0.387 µM,4.62 µM,< 0.01 µM,< 0.046 µM,2.4 µM,0.611 µM

Compound,TGI [1],TGI [2],TGI [3],TGI [4],TGI [5],TGI [6],TGI [7],TGI [8],TGI [9],TGI [10],GI50 [1],GI50 [2],GI50 [3],GI50 [4],GI50 [6],GI50 [7],GI50 [8],GI50 [10],GI50 [5],GI50 [9]
COC(=O)c1ccc2c(c1)[n+](=O)c(C(C)=O)c(C(F)(F)F)n2[O-],3.7 µM,3.95 µM,3.52 µM,3.39 µM,,3.36 µM,4.8 µM,3.06 µM,2.71 µM,3.14 µM,1.96 µM,1.95 µM,1.83 µM,1.75 µM,1.85 µM,2.23 µM,1.69 µM,1.71 µM,,1.4 µM
O=C1C=Cc2cc3ccccc3c3cccc1c23,22.8 µM,> 100 µM,18.6 µM,> 100 µM,> 100 µM,,> 100 µM,5.87 µM,72.3 µM,6.43 µM,1.43 µM,8.41 µM,3.21 µM,8.42 µM,,27.6 µM,2.73 µM,1.81 µM,14.5 µM,11.8 µM
CC(C)CCC[C@@H](C)C1CCC2[C@@H]3CC=C4C[C@@H](OC(=O)CCC(=O)NCC[N+](C)(C)CCCS(=O)(=O)[O-])CC[C@]4(C)C3CC[C@@]21C (stereo partly specified),37.8 µM,40.3 µM,29.5 µM,,34.5 µM,31.4 µM,34.9 µM,,44.9 µM,50.3 µM,,,,,,,,,,
O=C(N/C(=C\c1cc(Cl)ccc1Cl)c1nc2ccccc2[nH]1)c1ccccc1,> 100 µM,,71.9 µM,,> 100 µM,> 100 µM,> 100 µM,53.3 µM,,> 100 µM,,,,,,,,,,
COC(=O)C1=C(SC)SC2(C(=O)OC)C3C=C(C)C4C(N13)C42C(=O)OC (stereo unspecified),> 100 µM,> 100 µM,> 100 µM,> 100 µM,,> 100 µM,> 100 µM,> 100 µM,> 100 µM,> 100 µM,,,,,,,,,,
CC(C)(C)NC(=O)C12C3C4C1C1C2C3C41I (stereo unspecified),> 100 µM,> 100 µM,> 100 µM,,,> 100 µM,> 100 µM,,,,,,,,,,,,,
COC(=O)C1=C(O)C(C(=O)OC)[C@@]2(O)[C@@H](C(=O)OC)C(c3ccccc3C(F)(F)F)C[C@@H]1[C@@H]2C(=O)OC (stereo partly specified),27 µM,2.27 µM,3.11 µM,,,5.71 µM,36.4 µM,13.2 µM,1.53 µM,15 µM,10.4 µM,0.175 µM,1.4 µM,,2.14 µM,19.7 µM,3.46 µM,4.09 µM,,0.0935 µM
CCOc1cccc2cccnc12,> 100 µM,> 100 µM,,> 100 µM,> 100 µM,> 100 µM,,> 100 µM,> 100 µM,> 100 µM,,,,,,,,,,
COc1ccc(OC)c(-c2cc(-c3ccc(Cl)cc3)nn2-c2ccc(S(N)(=O)=O)cc2)c1,51.9 µM,,10.7 µM,> 100 µM,,34.3 µM,> 100 µM,35.4 µM,,12.1 µM,7.84 µM,,2.84 µM,21.6 µM,17.6 µM,35.1 µM,14.5 µM,2.98 µM,,
OCCOCn1nc(-c2ccccc2)nc1-c1cnccn1,> 100 µM,> 100 µM,> 100 µM,> 100 µM,> 100 µM,> 100 µM,,> 100 µM,> 100 µM,> 100 µM,,,,,,,,,,
COc1cc(OC)cc(-c2n[nH]nc2-c2ccc3c(c2)OCO3)c1,50.9 µM,,> 100 µM,> 100 µM,> 100 µM,0.546 µM,55.7 µM,11.9 µM,,30.8 µM,0.289 µM,,0.125 µM,0.432 µM,0.181 µM,0.245 µM,0.168 µM,3.09 µM,0.763 µM,
C=C1c2c(C)nn(-c3ccccc3)c2N(C)C23C[C@@H]1C1(C)c4c(C)nn(-c5ccccc5)c4N(C)C(C)(C[C@H]12)C3 (stereo partly specified),> 100 µM,,> 100 µM,> 100 µM,> 100 µM,> 100 µM,22 µM,,,> 100 µM,2.37 µM,,3.67 µM,11.9 µM,26.7 µM,6.78 µM,,4.38 µM,4.49 µM,
CC(CC(C)[C@H]1CCC2[C@H]3C(CC[C@@]21C)[C@@]1(C)CCC(O)C[C@H]1C[C@@H]3O)C(=O)O (stereo partly specified),> 100 µM,> 100 µM,> 100 µM,> 100 µM,> 100 µM,> 100 µM,> 100 µM,,> 100 µM,> 100 µM,,,,,,,,,,
Cn1c(=O)c2[nH]c(Nc3ccccc3)nc2n(C)c1=O,> 10 µM,> 10 µM,> 10 µM,> 10 µM,> 10 µM,,,> 10 µM,> 10 µM,> 10 µM,,,,,,,,,,
CCCCC#Cc1c(I)n(C2OC(CO[Si](C)(C)C(C)(C)C)C3OC(C)(C)OC32)c(=O)[nH]c1=O (stereo unspecified),34.2 µM,,> 100 µM,15.4 µM,16.1 µM,,3.58 µM,,24.9 µM,24 µM,16.6 µM,,2 µM,3.32 µM,,1.37 µM,,11.8 µM,3.84 µM,12.1 µM
COc1ccccc1NC(=O)CC(=O)NNCC(=O)Nc1nc(-c2ccccc2)cs1,> 100 µM,> 100 µM,,> 100 µM,> 100 µM,> 100 µM,,> 100 µM,> 100 µM,> 100 µM,,,,,,,,,,
COC(=O)c1ccc2n[se]nc2c1,> 100 µM,,> 100 µM,> 100 µM,> 100 µM,> 100 µM,> 100 µM,> 100 µM,> 100 µM,> 100 µM,,,,,,,,,,
